Values quoted from earlier work as cited in US20120172333A1, “PYRROLO-PYRIDINE DERIVATIVES AS ACTIVATORS OF AMPK” (GLAXOSMITHKLINE LLC, priority 2009, published 2012).

Tested on: ob/ob and db/db mice
Details: 8 day administration

NC(=O)c1ncn([C@@H]2O[C@H](CO)[C@@H](O)[C@H]2O)c1N [AICAR]
reduction of blood glucose: 35%
